Structures are written as SMILES.

Here are results for 2 compounds from BindingDB's records for doi:10.1016/j.bmcl.2012.08.044 (Lundbeck Research Usa, 2012).

One data set deals with Cytochrome P450 3A4 (Homo sapiens, UniProt P08684). Description: Inhibition of CYP3A4.
The target in the next data set is Cytochrome P450 2D6 (Homo sapiens, UniProt P10635). Put plainly: Inhibition of CYP2D6.
Sequence of Cytochrome P450 2D6 (P10635 whole entry): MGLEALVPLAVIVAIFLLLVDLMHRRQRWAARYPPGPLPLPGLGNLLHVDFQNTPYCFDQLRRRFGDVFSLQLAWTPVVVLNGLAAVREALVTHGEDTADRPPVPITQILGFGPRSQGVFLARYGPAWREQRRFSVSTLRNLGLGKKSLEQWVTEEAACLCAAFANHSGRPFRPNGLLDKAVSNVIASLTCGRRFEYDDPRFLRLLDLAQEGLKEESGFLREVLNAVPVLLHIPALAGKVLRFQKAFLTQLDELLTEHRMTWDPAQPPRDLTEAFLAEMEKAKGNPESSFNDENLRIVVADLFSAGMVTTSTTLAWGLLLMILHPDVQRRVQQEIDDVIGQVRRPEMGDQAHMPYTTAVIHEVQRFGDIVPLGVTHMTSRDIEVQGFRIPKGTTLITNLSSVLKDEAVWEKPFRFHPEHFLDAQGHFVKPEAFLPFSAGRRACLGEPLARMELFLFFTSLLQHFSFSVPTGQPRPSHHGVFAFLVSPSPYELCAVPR

Sequence of Cytochrome P450 3A4 (P08684 whole entry): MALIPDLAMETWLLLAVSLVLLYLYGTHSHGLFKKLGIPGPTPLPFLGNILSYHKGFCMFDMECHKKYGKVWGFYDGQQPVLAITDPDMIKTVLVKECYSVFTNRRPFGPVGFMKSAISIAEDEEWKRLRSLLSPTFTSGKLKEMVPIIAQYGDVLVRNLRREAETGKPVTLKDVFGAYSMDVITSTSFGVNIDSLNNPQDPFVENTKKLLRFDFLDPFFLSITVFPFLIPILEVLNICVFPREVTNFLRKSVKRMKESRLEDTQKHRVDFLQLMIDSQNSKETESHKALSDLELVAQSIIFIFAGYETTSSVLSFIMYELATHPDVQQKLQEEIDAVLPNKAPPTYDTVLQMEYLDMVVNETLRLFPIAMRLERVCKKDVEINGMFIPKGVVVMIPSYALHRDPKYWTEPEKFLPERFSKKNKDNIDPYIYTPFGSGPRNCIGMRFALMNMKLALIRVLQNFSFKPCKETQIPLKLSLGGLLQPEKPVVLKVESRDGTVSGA

As for `CC1CCCCC1C(=O)N1CC(c2nc(-c3cccc(F)c3)no2)C1` (centres undefined), the results for the IC50 on Cytochrome P450 3A4 and at Cytochrome P450 2D6 were 25 µM and 40 µM, respectively.
The matching figures for `O=C(C1CCC(F)(F)CC1)N1CC(c2nc(-c3cccc(Cl)c3)no2)C1`: 25 µM and 33 µM.

A word on the IC50: it is the point on the concentration scale where inhibition reaches its midpoint.
